Measured values published in patent US9809634B2, “Composition comprising branched multipeptide vaccine and vaccine comprising the same” (INDUSTRY FOUNDATION OF CHONNAM NATIONAL UNIVERSITY, priority 2015, dated 2017).

Test system: T2 cell line expressing HLA-A2
Assay: Binding capacity to T-lymphocyte of each subsequence residue (T2 cells, HLA-A2-FITC staining, flow cytometry)
Type: cell-based, human
Conditions: T2 cells cultured overnight with peptide and beta2-microglobulin; FIG. 3; compared with the other subsequence residues of the same tumor antigen
Protocol: The binding capacity to T-lymphocyte, of each of the subsequence residues shown in Table 1 above, was measured (FIG. 3).
Measurement of binding capacity between T-lymphocyte and each of the subsequence residues
T2 cell line (Korea Cell Line Bank) is […] expressing HLA-A2. The peptide and beta2-microglobulin on T2 cells were cultured overnight, and the T2 cells were stained with antihuman HLA-A2-FITCmAb, and analyzed by a FACS Caliber flow cytometer and WinMDI software.
The binding capacity of subsequence residue was calculated from mean fluorescence with the peptide and mean fluorescence without the peptide according to the following Equation: […]

Sequence	binding capacity to T-lymphocyte
LLLFGLLGV (Peptide CD99-9) [SEQ ID NO: 10]	most excellent
LMLGEFLKL [SEQ ID NO: 9]	most excellent
